Experimental data as given in patent publication US12077503B2, “Substituted cyclic amides and their use as herbicides” (FMC CORPORATION, priority 2015, dated 2024).

Tests used:
Format in all cases: in vivo
[1] = test system: velvetleaf (Abutilon theophrasti); assay: Test A postemergence; conditions: postemergence, 0 to 100 scale (0 no effect, 100 complete control)
Summary of the method: (§1)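 Preemergence directed soil spray on seeded pots, or postemergence application to plants 2–10 cm, one- to two-leaf. Solvent mixture non-phytotoxic, with surfactant. Scored ~10 d later, visually, 0–100 vs untreated.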

[2] = test system: giant foxtail (Setaria faberii); assay: Test A postemergence; conditions: postemergence, 0 to 100 scale (0 no effect, 100 complete control)
Summary of the method: as §1

[3] = test system: pigweed (Amaranthus retroflexus); assay: Test A postemergence; conditions: postemergence, 0 to 100 scale (0 no effect, 100 complete control)
Summary of the method: as §1

[4] = test system: wheat (Triticum aestivum); assay: Test A postemergence; conditions: postemergence, 0 to 100 scale (0 no effect, 100 complete control)
Summary of the method: as §1

corn (Zea mays) [5] = assay: Test A postemergence; conditions: postemergence, 0 to 100 scale (0 no effect, 100 complete control)
Summary of the method: as §1

[6] = test system: barnyardgrass (Echinochloa crus-galli); assay: Test A postemergence; conditions: postemergence, 0 to 100 scale (0 no effect, 100 complete control)
Summary of the method: as §1

[7] = test system: morningglory (Ipomoea spp.); assay: Test A postemergence; conditions: postemergence, 0 to 100 scale (0 no effect, 100 complete control)
Summary of the method: as §1

[8] = test system: crabgrass, large (Digitaria sanguinalis); assay: Test A postemergence; conditions: postemergence, 0 to 100 scale (0 no effect, 100 complete control)
Summary of the method: as §1

[9] = test system: velvetleaf (Abutilon theophrasti); assay: Test A preemergence; conditions: preemergence
Summary of the method: as §1

[10] = test system: giant foxtail (Setaria faberii); assay: Test A preemergence; conditions: preemergence
Summary of the method: as §1

[11] = test system: pigweed (Amaranthus retroflexus); assay: Test A preemergence; conditions: preemergence
[12] = test system: wheat (Triticum aestivum); assay: Test A preemergence; conditions: preemergence
Summary of the method: as §1

corn (Zea mays) [13] = assay: Test A preemergence; conditions: preemergence
Summary of the method: as §1

[14] = test system: barnyardgrass (Echinochloa crus-galli); assay: Test A preemergence; conditions: preemergence
Summary of the method: as §1

[15] = test system: morningglory (Ipomoea spp.); assay: Test A preemergence; conditions: preemergence
Summary of the method: as §1

[16] = test system: crabgrass, large (Digitaria sanguinalis); assay: Test A preemergence; conditions: preemergence
Summary of the method: as §1

rice (Oryra sativa) = assay: Test B flooded paddy test; conditions: Flood, 250 g ai/ha; 0 to 100 scale where 0 is no effect and 100 is complete control; 13 to 15 d
Summary of the method: (§2)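 Flooding to 3 cm over soil accompanied treatment, which consisted of adding compound to the standing water around 2-leaf plants; depth was then maintained. Visual assessment versus controls followed at 13 to 15 d (scale 0–100, 0 meaning no effect).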

[17] = test system: barnyardgrass (Echinochloa crus-galli); assay: Test B flooded paddy test; conditions: Flood, 250 g ai/ha; 0 to 100 scale where 0 is no effect and 100 is complete control; 13 to 15 d
Summary of the method: as §2

[18] = test system: ducksalad (Heteranthera limosa); assay: Test B flooded paddy test; conditions: Flood, 250 g ai/ha; 0 to 100 scale where 0 is no effect and 100 is complete control; 13 to 15 d
Summary of the method: as §2

[19] = test system: sedge, umbrella (small-flower umbrella sedge, Cyperus difformis); assay: Test B flooded paddy test; conditions: Flood, 250 g ai/ha; scale of 0 to 100 where 0 is no effect and 100 is complete control
Summary of the method: as §2

[20] = 125 g ai/ha, visual injury after approximately 10 d
[21] = 500 g ai/ha, visual injury, approx. 10 d
[22] = 125 g ai/ha, visual rating after approx. 10 d, 0 to 100 scale where 0 is no effect and 100 is complete control
[23] = 500 g ai/ha, 0 to 100 scale, 0 = no effect, 100 = complete control

O=C1NCC(c2cccc(O)c2)C1C(=O)Nc1ccccc1C(F)(F)F (racemic) [Compound 716]
0: Plant response rating, Velvetleaf [1, 20] | Plant response rating, Velvetleaf [1, 21] | Plant response rating, Foxtail, Giant [2, 20] | Plant response rating, Foxtail, Giant [2, 21] | Plant response rating, Pigweed [3, 20] | Plant response rating, Pigweed [3, 21] | Plant response rating, Wheat [4, 20] | Plant response rating, Wheat [4, 21] | Plant response rating, Corn (corn (Zea mays) [5]; [20]) | Plant response rating, Corn (corn (Zea mays) [5]; [21]) | Plant response rating, Barnyardgrass [6, 20] | Plant response rating, Barnyardgrass [6, 21] | Plant response rating, Morningglory [7, 20] | Plant response rating, Morningglory [7, 21] | Plant response rating, Crabgrass, Large [8, 20] | Plant response rating, Crabgrass, Large [8, 21] | Plant response rating, Velvetleaf [9, 22] | Plant response rating, Velvetleaf [9, 23] | Plant response rating, Foxtail, Giant [10, 22] | Plant response rating, Foxtail, Giant [10, 23] | Plant response rating, Pigweed [11, 22] | Plant response rating, Pigweed [11, 23] | Plant response rating, Wheat [12, 22] | Plant response rating, Wheat [12, 23] | Plant response rating, Corn (corn (Zea mays) [13]; [22]) | Plant response rating, Corn (corn (Zea mays) [13]; [23]) | Plant response rating, Barnyardgrass [14, 22] | Plant response rating, Barnyardgrass [14, 23] | Plant response rating, Morningglory [15, 22] | Plant response rating, Morningglory [15, 23] | Plant response rating, Crabgrass, Large [16, 22] | Plant response rating, Crabgrass, Large [16, 23] | Plant response rating, Rice (rice (Oryra sativa)) | Plant response rating, Barnyardgrass [17] | Plant response rating, Ducksalad [18] | Sedge, Umbrella plant response rating [19]
